The target in this experiment is T1, APJ Receptor (Homo sapiens, UniProt P35414).
T1 sequence (P35414 1-380): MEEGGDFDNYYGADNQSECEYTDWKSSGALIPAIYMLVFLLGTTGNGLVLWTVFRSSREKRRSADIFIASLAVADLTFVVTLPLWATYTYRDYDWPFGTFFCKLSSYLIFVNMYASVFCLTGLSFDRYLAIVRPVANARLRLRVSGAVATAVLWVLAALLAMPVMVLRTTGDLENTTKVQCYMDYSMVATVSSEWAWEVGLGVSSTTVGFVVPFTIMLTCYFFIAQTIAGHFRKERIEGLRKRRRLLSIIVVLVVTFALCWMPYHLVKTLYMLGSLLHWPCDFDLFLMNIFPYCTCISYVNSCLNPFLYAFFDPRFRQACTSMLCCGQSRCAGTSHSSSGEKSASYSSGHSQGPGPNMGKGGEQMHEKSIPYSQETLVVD
The experiment is described as follows: APJ cAMP assay: inhibition of forskolin-stimulated cAMP, enzyme fragment complementation, in CHO-K1 cells stably expressing the APJ Receptor. In kind it is cell-based. The settings on record: CHO-K1 cell line (DiscoverX) stably expressing APJ Receptor; EC80 forskolin; 30 minutes at 37° C.; read-out: APJ cAMP EC50 Potency range. An excerpt:
Activation of APJ receptor is known to inhibit forskolin-stimulated cyclic AMP (cAMP) production in cells in a pertussis toxin-sensitive manner which indicates primary coupling to the GαI subunit of the G protein heterotrimeric complex. In addition to signaling through G protein and inhibition of cAMP, APJ receptor activation also results in β-arrestin recruitment, receptor internalization and activation of extracellular-regulated kinases (ERKs).
In order to optimize functional activity directed toward Gi coupling we utilized a CHO-K1 cell line developed by DiscoverX stably expressing the APJ Receptor. Cells expressing APJR receptor were plated in a 384-well microtiter plates and incubated overnight at 37° C. with 5% CO2 to allow the cells to attach and grow. Media was then aspirated from the cells and replaced with 15 uL 2:1 Hanks Balanced Salt Solution (HBSS)/10 mM Hepes. cAMP XS+ Ab reagent. Five microliters (5 uL) of previously generated compound sample stocks at 4× final concentration in assay buffer containing 4×EC80 forskolin were then added to the cells and allowed to incubate at 37° C. for 30 minutes.
After incubation the assay signal was generated using a technology termed enzyme fragment complementation (EFC). In EFC the enzyme B-galactosidase is split into two complementary portions (EA and ED). The fragment ED is fused to cAMP and in the assay format competes with endogenous cAMP for binding to a cAMP specific antibody. Activated B-Gal is formed when exogenous EA fragment binds to free ED-cAMP (not bound to cAMP specific antibody). Activated enzyme levels are detected through conversion of B-gal chemiluminescent substrate which generates a detectable luminescence signal and read on standard microtiter plate.
The methodology for detection of cAMP using EFC requires incubation with 20 uL of cAMP XS+ ED/CL lysis cocktail for one hour followed by incubation with 20 uL cAMP XS+ EA reagent for three hours at room temperature. Microplates were read following signal generation with a PerkinElmer Envision instrument utilizing chemiluminescent signal detection.
Compound activity was analyzed using CBIS data analysis suite (ChemInnovation, CA).
Percentage activity was calculated using the following formula: % Activity=[…]×(1−(mean RLU of test sample−mean RLU of Max control)/(mean RLU of vehicle control−mean RLU of Max control))
The biological activity of the exemplified compounds of this invention determined by the assay described above is shown in Table 1. The APJ cAMP EC50 potency ranges are as follows: A: EC50<1 nM; B: 1≤EC50<100 nM; and C: 100≤EC50<10,000 nM.
For orientation: Cyclic AMP is a second messenger, typically raised through Gs and lowered through Gi signalling.
As usually defined, the EC50 is the concentration needed to bring the measured effect to its halfway point. For `COc1cccc(OC)c1-n1c(C(=O)NS(=O)(=O)Cc2ccccc2)nnc1-c1cccc(OC(F)F)n1` [Example 21, N-(benzylsulfonyl)-5-(6-(difluoromethoxy)pyridin-2-yl)-4-(2,6-dimethoxyphenyl)-4H-1,2,4-triazole-3-carboxamide], the EC50 was 1 to 100 nM. For `COc1cccc(OC)c1-n1c(C(=O)NS(=O)(=O)Cc2ncccn2)nnc1-c1cccc(OC(F)F)n1` [Example 22, 5-(6-(Difluoromethoxy)pyridin-2-yl)-4-(2,6-dimethoxyphenyl)-N-((pyrimidin-2-ylmethyl)sulfonyl)-4H-1,2,4-triazole-3-carboxamide] the value was 1 to 100 nM; for `COc1cccc(OC)c1-n1c(C(=O)NS(=O)(=O)Cc2ncccn2)nnc1-c1ccc(F)c(OC)n1` [Example 23, 4-(2,6-Dimethoxyphenyl)-5-(5-fluoro-6-methoxypyridin-2-yl)-N-((pyrimidin-2-ylmethyl)sulfonyl)-4H-1,2,4-triazole-3-carboxamide], 100 to 10000 nM. As for `COc1cccc(OC)c1-n1c(C(=O)NS(=O)(=O)Cc2ncc(C)cn2)nnc1-c1ccc(C)cn1` [Example 24, 4-(2,6-Dimethoxyphenyl)-5-(5-methylpyridin-2-yl)-N-(((5-methylpyrimidin-2-yl)methyl)sulfonyl)-4H-1,2,4-triazole-3-carboxamide], the figure is 100 to 10000 nM. As for `COc1cccc(OC)c1-n1c(C(=O)NS(=O)(=O)Cc2ncccn2)nnc1-c1cc(C)ccn1` [Example 25, 4-(2,6-Dimethoxyphenyl)-5-(4-methylpyridin-2-yl)-N-((pyrimidin-2-ylmethyl)sulfonyl)-4H-1,2,4-triazole-3-carboxamide], the figure is 100 to 10000 nM; as for `COc1cccc(-c2nnc(C(=O)NS(=O)(=O)Cc3ncccn3)n2-c2c(OC)cccc2OC)n1` [Example 26, 4-(2,6-dimethoxyphenyl)-5-(6-methoxypyridin-2-yl)-N-((pyrimidin-2-ylmethyl)sulfonyl)-4H-1,2,4-triazole-3-carboxamide], under 1 nM. For `COc1cccc(-c2nnc(C(=O)NS(=O)(=O)Cc3ncc(C)cn3)n2-c2c(OC)cccc2OC)n1` [Example 27, 4-(2,6-Dimethoxyphenyl)-5-(6-methoxypyridin-2-yl)-N-(((5-methylpyrimidin-2-yl)methyl)sulfonyl)-4H-1,2,4-triazole-3-carboxamide], the EC50 is under 1 nM. For `COc1cccc(-c2nnc(C(=O)NS(=O)(=O)Cc3ccccn3)n2-c2c(OC)cccc2OC)n1` [Example 28, 4-(2,6-Dimethoxyphenyl)-5-(6-methoxypyridin-2-yl)-N-((pyridin-2-ylmethyl)sulfonyl)-4H-1,2,4-triazole-3-carboxamide] the value was under 1 nM; for `COc1cccc(-c2nnc(C(=O)NS(=O)(=O)Cc3ncc(Cl)cn3)n2-c2c(OC)cccc2OC)n1` [Example 29, N-(((5-chloropyrimidin-2-yl)methyl)sulfonyl)-4-(2,6-dimethoxyphenyl)-5-(6-methoxypyridin-2-yl)-4H-1,2,4-triazole-3-carboxamide], under 1 nM; for `COc1cccc(-c2nnc(C(=O)NS(=O)(=O)Cc3cccc(F)c3)n2-c2c(OC)cccc2OC)n1` [Example 30, 4-(2,6-Dimethoxyphenyl)-N-((3-fluorobenzyl)sulfonyl)-5-(6-methoxypyridin-2-yl)-4H-1,2,4-triazole-3-carboxamide], 1 to 100 nM. As for `COc1cccc(-c2nnc(C(=O)NS(=O)(=O)Cc3ccc(F)cc3)n2-c2c(OC)cccc2OC)n1` [Example 31, 4-(2,6-Dimethoxyphenyl)-N-((4-fluorobenzyl)sulfonyl)-5-(6-methoxypyridin-2-yl)-4H-1,2,4-triazole-3-carboxamide], the figure is under 1 nM. For `COc1cccc(-c2nnc(C(=O)NS(=O)(=O)CC3CCCCC3)n2-c2c(OC)cccc2OC)n1` [Example 34, N-((cyclohexylmethyl)sulfonyl)-4-(2,6-dimethoxyphenyl)-5-(6-methoxypyridin-2-yl)-4H-1,2,4-triazole-3-carboxamide] the value was under 1 nM; for `COc1cccc(-c2nnc(C(=O)NS(=O)(=O)CC3CC3)n2-c2c(OC)cccc2OC)n1` [Example 35, N-((cyclopropylmethyl)sulfonyl)-4-(2,6-dimethoxyphenyl)-5-(6-methoxypyridin-2-yl)-4H-1,2,4-triazole-3-carboxamide], 1 to 100 nM; for `COc1cccc(-c2nnc(C(=O)NS(=O)(=O)Cc3cncnc3)n2-c2c(OC)cccc2OC)n1` [Example 36, 4-(2,6-Dimethoxyphenyl)-5-(6-methoxypyridin-2-yl)-N-((pyrimidin-5-ylmethyl)sulfonyl)-4H-1,2,4-triazole-3-carboxamide], 1 to 100 nM. Take `COc1cccc(-c2nnc(C(=O)NS(=O)(=O)Cc3cnccn3)n2-c2c(OC)cccc2OC)n1` [Example 37, 4-(2,6-Dimethoxyphenyl)-5-(6-methoxypyridin-2-yl)-N-((pyrazin-2-ylmethyl)sulfonyl)-4H-1,2,4-triazole-3-carboxamide]: the EC50 lay in the range of 1 to 100 nM. For `CCOc1cccc(-c2nnc(C(=O)NS(=O)(=O)Cc3ncc(C)cn3)n2-c2c(OC)cccc2OC)n1` [Example 38, 4-(2,6-Dimethoxyphenyl)-5-(6-ethoxypyridin-2-yl)-N-(((5-methylpyrimidin-2-yl)methyl)sulfonyl)-4H-1,2,4-triazole-3-carboxamide], the EC50 is under 1 nM. In the case of `CCOc1cccc(-c2nnc(C(=O)NS(=O)(=O)Cc3ncccn3)n2-c2c(OC)cccc2OC)n1` [Example 41, 4-(2,6-Dimethoxyphenyl)-5-(6-ethoxypyridin-2-yl)-N-((pyrimidin-2-ylmethyl)sulfonyl)-4H-1,2,4-triazole-3-carboxamide], the EC50 is under 1 nM.

As for `CCOc1cccc(-c2nnc(C(=O)NS(=O)(=O)Cc3ncc(F)cn3)n2-c2c(OC)cccc2OC)n1` [Example 42, 4-(2,6-Dimethoxyphenyl)-5-(6-ethoxypyridin-2-yl)-N-(((5-fluoropyrimidin-2-yl)methyl)sulfonyl)-4H-1,2,4-triazole-3-carboxamide], the half-maximal effective concentration (EC50) was under 1 nM. For the compound `CCOc1cccc(-c2nnc(C(=O)NS(=O)(=O)Cc3ncc(Cl)cn3)n2-c2c(OC)cccc2OC)n1` [Example 43, N-(((5-chloropyrimidin-2-yl)methyl)sulfonyl)-4-(2,6-dimethoxyphenyl)-5-(6-ethoxypyridin-2-yl)-4H-1,2,4-triazole-3-carboxamide], the concentration for a half-maximal effect (EC50) was under 1 nM. On to `CCOc1cccc(-c2nnc(C(=O)NS(=O)(=O)Cc3ncc(OC)cn3)n2-c2c(OC)cccc2OC)n1` [Example 44, 4-(2,6-Dimethoxyphenyl)-5-(6-ethoxypyridin-2-yl)-N-(((5-methoxypyrimidin-2-yl)methyl)sulfonyl)-4H-1,2,4-triazole-3-carboxamide], for which the concentration giving a half-maximal response (EC50) is under 1 nM.

On to `CCOc1cccc(-c2nnc(C(=O)NS(=O)(=O)CCc3ccncc3)n2-c2c(OC)cccc2OC)n1` [Example 49, 4-(2,6-Dimethoxyphenyl)-5-(6-ethoxypyridin-2-yl)-N-((2-(pyridin-4-yl)ethyl)sulfonyl)-4H-1,2,4-triazole-3-carboxamide], for which the EC50 was under 1 nM.

For `CCOc1cccc(-c2nnc(C(=O)NS(=O)(=O)CCc3cccnc3)n2-c2c(OC)cccc2OC)n1` [Example 50, 4-(2,6-Dimethoxyphenyl)-5-(6-ethoxypyridin-2-yl)-N-((2-(pyridin-3-yl)ethyl)sulfonyl)-4H-1,2,4-triazole-3-carboxamide], the 50% effective concentration (EC50) was under 1 nM. As for `CCOc1cccc(-c2nnc(C(=O)NS(=O)(=O)CCc3ccccn3)n2-c2c(OC)cccc2OC)n1` [Example 51, 4-(2,6-Dimethoxyphenyl)-5-(6-ethoxypyridin-2-yl)-N-((2-(pyridin-2-yl)ethyl)sulfonyl)-4H-1,2,4-triazole-3-carboxamide], the figure is under 1 nM.

For the origin of these results see patent US11724997B2, “Compounds and compositions for treating conditions associated with APJ receptor activity” (Annapurna Bio, Inc., priority 2018, dated 2023).
